Where two headings read alike, the source gives them in different places.
Tests used:
phospho-ERK = assay: Cellular phospho-ERK assay; assay type: cell-based; conditions: NCI-H358 cells, 2 hour incubation, ratio of p-Erk vs total Erk, read-out: IC50 (nM) pERK (Cell)
Procedure, shortened: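 NCI-H358 cells seeded overnight, then exposed to compound dose-response titrations for 2 hours at 37° C. in RPMI. Lysates assayed by AlphaLISA SureFire Ultra multiplex for p-Erk and total Erk; ratio p-Erk/total Erk used as readout, IC50 from 4-parameter logistic fit.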

[1] = molecular target: Biotinylated KRAS G12C protein (Homo sapiens (Human), UniProt P01116, C118S/C51S/C80L/G12C); assay: SOS-catalyzed nucleotide exchange assay (TR-FRET); assay type: biochemical; conditions: in vitro apparent potency; preincubation time of 60 minutes prior to addition of SOS
Procedure, shortened: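 Biotinylated KRAS G12C preloaded with Bodipy-GDP and Tb-streptavidin, then incubated with compound (10-point, 3-fold series) for 60 min at RT. Exchange started with SOS and GTP for 60 min. TR-FRET 520/495 ratio normalised to DMSO and saturating-inhibitor controls; four-parameter fit.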

Biotinylated KRAS G12C protein, sequence (P01116 other isoform, or with tags, fused parts or gaps, stated change not applied): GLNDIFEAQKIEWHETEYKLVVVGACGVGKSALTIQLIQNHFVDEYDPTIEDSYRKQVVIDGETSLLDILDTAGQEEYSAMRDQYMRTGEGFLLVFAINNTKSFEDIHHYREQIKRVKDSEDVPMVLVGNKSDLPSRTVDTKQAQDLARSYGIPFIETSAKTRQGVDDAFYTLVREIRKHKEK

SMILES	IC50 (phospho-ERK) [nM]	IC50 [1] [nM]	IC50 (phospho-ERK; Homo sapiens, NCI-H358, 2 h) [nM]
C=CC(=O)N1[C@H](C)CN(c2nc(=O)n3c4nc(c(F)cc24)-c2c(F)cccc2OCCCCc2ccnc(C(C)C)c2-3)C[C@@H]1C [Example 7, 2-[(3R,5S)-3,5-dimethyl-4-(prop-2-enoyl)piperazin-1-yl]-18,21-difluoro-6-(propan-2-yl)-10,11,12,13-tetrahydro-4H-1,19-ethenopyrido[4,3-f]pyrimido[1,6-h][1,8,10]benzoxadiazacyclotridecin-4-one]	34	6.9	
C=CC(=O)N1CC(C)N(c2nc(=O)n3c4nc(c(F)cc24)-c2c(F)cccc2COCCc2ccnc(C(C)C)c2-3)CC1C [Example 115, 2-[(2S,5R)-2,5-dimethyl-4-(prop-2-enoyl)piperazin-1-yl]-17,20-difluoro-6-(propan-2-yl)-10,11-dihydro-1,18-ethenopyrido[3,4-e]pyrimido[6,1-c][9,2,4]benzoxadiazacyclododecin-4(13H)-one]	1020	237	
C=CC(=O)N1C[C@H](C)N(c2nc(=O)n3c4nc(c(F)cc24)-c2c(ccc(F)c2F)OCCC(C)c2ccnc(C(C)C)c2-3)C[C@H]1C (single isomer, unassigned) [Example 91]		113	410
C=CC(=O)N1C[C@@H]2C[C@H]1CN2c1nc(=O)n2c3nc(c(F)cc13)-c1c(F)cccc1OCCCCc1ccnc(C(C)C)c1-2 [Example 104, 18,21-difluoro-6-(propan-2-yl)-2-[(1S,4S)-5-(prop-2-enoyl)-2,5-diazabicyclo[2.2.1]heptan-2-yl]-10,11,12,13-tetrahydro-4H-1,19-ethenopyrido[4,3-f]pyrimido[1,6-h][1,8,10]benzoxadiazacyclotridecin-4-one]		1470	8850
C=CC(=O)N1C[C@H](C)N(c2nc(=O)n3c4nc(c(F)cc24)-c2c(cccc2C(F)(F)F)OCCOc2ccnc(C(C)C)c2-3)C[C@H]1C [Example 73, 2-[(2S,5R)-2,5-dimethyl-4-(prop-2-enoyl)piperazin-1-yl]-20-fluoro-6-(propan-2-yl)-17-(trifluoromethyl)-11,12-dihydro-4H-1,18-(ethanediylidene)pyrido[4,3-e]pyrimido[1,6-g][1,4,7,9]benzodioxadiazacyclododecin-4-one]	13	6.5	
C=CC(=O)N1CCN(c2nc(=O)n3c4nc(c(F)cc24)-c2c(F)cccc2C(=O)NCCCc2ccnc(C(C)C)c2-3)[C@@H](C)C1 (single isomer, unassigned) [Example 19a]	117	6.8	
C=CC(=O)N1C[C@H](C)N(c2nc(=O)n3c4nc(c(F)cc24)-c2c(F)cccc2OCC(F)(F)COc2ccnc(C(C)C)c2-3)C[C@H]1C (single isomer, unassigned) [Example 13b]	22100	8530	
C=CC(=O)N1CCN(c2nc(=O)n3c4nc(c(F)cc24)-c2cccc4cnn(c24)CCCCc2ccnc(C(C)C)c2-3)[C@@H](C)C1 [Example 6, 22-fluoro-2-[(2S)-2-methyl-4-(prop-2-enoyl)piperazin-1-yl]-6-(propan-2-yl)-10,11,12,13-tetrahydro-4H-1,20-(ethanediylidene)-pyrido[4′,3′:12,13]pyrimido-[1′,6′:1,2][1,3,7]triazacyclo-tridecino[5,6,7-hi]indazol-4-one]		9.2	45
C=C(F)C(=O)N1CCN(c2nc(=O)n3c4nc(c(F)cc24)-c2c(F)cccc2OCCCCc2ccnc(C(C)C)c2-3)[C@@H](C)C1 [Example 85, 18,21-difluoro-2-[(2S)-4-(2-fluoroprop-2-enoyl)-2-methylpiperazin-1-yl]-6-(propan-2-yl)-10,11,12,13-tetrahydro-4H-1,19-ethenopyrido[4,3-f]pyrimido[1,6-h][1,8,10]benzoxadiazacyclotridecin-4-one]		47	198
C=CC(=O)N1C[C@H](C)N(c2nc(=O)n3c4nc(c(F)cc24)-c2c(F)ccc(F)c2OCCOc2ccnc(C4CC4)c2-3)C[C@H]1C [Example 111, 6-cyclopropyl-2-[(2S,5R)-2,5-dimethyl-4-(prop-2-enoyl)piperazin-1-yl]-14,17,20-trifluoro-11,12-dihydro-4H-1,18-ethenopyrido[4,3-e]pyrimido[1,6-g][1,4,7,9]benzodioxadiazacyclododecin-4-one]	154	17	
C=CC(=O)N1C[C@@H](C)N(c2nc(=O)n3c4nc(c(Cl)cc24)-c2c(F)ccc(F)c2OCCOc2ccnc(C(C)C)c2-3)C[C@@H]1C [Example 51-1, (5aSa,17aRa)-20-Chloro-2-[(2S,5R)-2,5-dimethyl-4-(prop-2-enoyl)piperazin-1-yl]-14,17-difluoro-6-(propan-2-yl)-11,12-di[(^2H)hydro](11,12-^2H2)-4H-1,18-(ethanediylidene)pyrido[4,3-e]pyrimido[1,6-g][1,4,7,9]benzodioxadiazacyclododecin-4-one]	13	1	
C=CC(=O)N1CCN(c2nc(=O)n3c4nc(c(F)cc24)-c2c(F)cccc2OCCCc2ccnc(C(C)C)c2-3)C[C@@H]1CC#N (single isomer, unassigned) [Example 11a]		19	395
C=CC(=O)N1CCN(c2nc(=O)n3c4nc(c(F)cc24)-c2c(ccc(F)c2F)OCC(F)(F)CCc2ccnc(C(C)C)c2-3)CC1 [Example 65, 12,12,17,18,21-pentafluoro-6-(propan-2-yl)-2-[4-(prop-2-enoyl)piperazin-1-yl]-10,11,12,13-tetrahydro-4H-1,19-(ethanediylidene)pyrido[4,3-f]pyrimido[1,6-h][1,8,10] benzoxadiazacyclotri-decin-4-one]		2.6	15

The remaining compounds from weak to strong by IC50 [1], led by results:

IC50 (phospho-ERK) [nM]	IC50 [1] [nM]	IC50 (phospho-ERK; Homo sapiens, NCI-H358, 2 h) [nM]	SMILES
	2.4	45	C=CC(=O)N1C[C@H](C)N(c2nc(=O)n3c4nc(c(F)cc24)-c2c(F)c(F)cc(F)c2OCCCc2ccnc(C(C)C)c2-3)C[C@H]1C [Example 77, 2-[(2S,5R)-2,5-dimethyl-4-(prop-2-enoyl)piperazin-1-yl]-14,16,17,20-tetrafluoro-6-(propan-2-yl)-11,12-dihydro-4H,10H-1,18-ethenopyrido[4,3-e]pyrimido[1,6-g][1,7,9]benzoxadiazacyclododecin-4-one]
	2.3	43	C=CC(=O)N1C[C@H](C)N(c2nc(=O)n3c4nc(c(F)cc24)-c2c(F)ccc(F)c2OCC2(CCc4ccnc(C(C)C)c4-3)CC2)C[C@H]1C [Example 61, 2′-[(2S,5R)-2,5-dimethyl-4-(prop-2-enoyl)piperazin-1-yl]-15′,18′,21′-trifluoro-6′-(propan-2-yl)-10′,11′-dihydro-4′H,13′H-spiro[cyclopropane-1,12′-[14]oxa [3,5,7,20]tetraaza[1,19] (ethanediylidene)pyrido[4,3-f]pyrimido[1,6-h][1,8,10]benzoxadiazacyclotri-decin]-4′-one]
9.3	1.8		C=CC(=O)N1C[C@H](C)N(c2nc(=O)n3c4nc(c(F)cc24)-c2c(F)cccc2OCC(F)(F)CCc2ccnc(C(C)C)c2-3)C[C@H]1C [Example 52, (5aRa,18aRa)-2-[(2S,5R)-2,5-dimethyl-4-(prop-2-enoyl)piperazin-1-yl]-12,12,18,21-tetrafluoro-6-(propan-2-yl)-10,11,12,13-tetrahydro-4H-1,19-(ethanediylidene)pyrido[4,3-f]pyrimido[1,6-h][1,8,10]benzoxadiazacyclotridecin-4-one]
19	1.8		C=CC(=O)N1C[C@H](C)N(c2nc(=O)n3c4nc(c(F)cc24)-c2c(F)cccc2OCCOc2c(Cl)cnc(C(C)C)c2-3)C[C@H]1C [Example 70, 9-chloro-2-[(2S,5R)-2,5-dimethyl-4-(prop-2-enoyl)piperazin-1-yl]-17,20-difluoro-6-(propan-2-yl)-11,12-dihydro-4H-1,18-(ethanediylidene)pyrido[4,3-e]pyrimido[1,6-g][1,4,7,9]benzodioxadiazacyclododecin-4-one]
	1.1	8	C=CC(=O)N1CC(C)N(c2nc(=O)n3c4nc(c(F)cc24)-c2c(F)cc(F)cc2OCC(F)(F)CCc2ccnc(C(C)C)c2-3)CC1C [Example 56, (5aRa,18aRa)-2-[(2S,5R)-2,5-dimethyl-4-(prop-2-enoyl)piperazin-1-yl]-12,12,16,18,21-pentafluoro-6-(propan-2-yl)-10,11,12,13-tetrahydro-4H-1,19-(ethanediylidene)pyrido[4,3-f]pyrimido[1,6-h][1,8,10] benzoxadiazacyclotri-decin-4-one]
	0.71	12	C=CC(=O)N1C[C@H](C)N(c2nc(=O)n3c4nc(c(F)cc24)-c2c(ccc(F)c2F)OCC2(CC2)Cc2ccnc(C(C)C)c2-3)C[C@H]1C [Example 92, 2′-[(2S,5R)-2,5-dimethyl-4-(prop-2-enoyl)piperazin-1-yl]-16′,17′,20′-trifluoro-6′-(propan-2-yl)-4′H,10′H,12′H-spiro[cyclopropane-1,11′-[13]oxa[3,5,7,19]tetraaza[1,18]ethenopyrido [4,3-e]pyrimido[1,6-g][1,7,9]benzoxadiazacyclododecin]-4′-one]
3	0.56		C=CC(=O)N1CCN(c2nc(=O)n3c4nc(c(F)cc24)-c2c(ccc(F)c2F)OCC(F)(F)CCc2ccnc(C(C)C)c2-3)[C@@H](C)C1 [Example 97, 12,12,17,18,21-pentafluoro-2-[(2S)-2-methyl-4-(prop-2-enoyl)piperazin-1-yl]-6-(propan-2-yl)-10,11,12,13-tetrahydro-4H-1,19-(ethanediylidene)pyrido[4,3-f]pyrimido[1,6-h][1,8,10]benzoxadiazacyclotridecin-4-one]

From patent US20240043448A1, “Small Molecule Inhibitors of KRAS G12C Mutant” (Merck Sharp & Dohme LLC, priority 2019, published 2024)
